These results are taken from patent publication US20230277669A1, “USES OF UROLITHINS” (Amazentis SA, priority 2022, published 2023).

In assay [1] the test system is APTK organoids. Description: APTK organoids incubated with UA, flow cytometry. In kind it is cell-based, murine. The source says: Oral UA confers anti-tumor effects in murine colorectal cancer in a T-cell dependent manner. (FIG. 1A) Schematic representation of AOM model and different UA containing diets. (FIG. 1B) Representative images of swiss-roll sections from AOM-induced colon tumors. Scale bars are 2 mm (upper row) and 300 µm (lower row), respectively. (FIG. 1C) Tumor incidence of AOM-induced tumors receiving different UA-containing diets; n=4/5/5. Data are mean ±SD, depicting one of two independent experiments. *p < 0.05 by two-sided t-test. (FIG. 1D) Average lesion size of AOM-induced tumors receiving different UA-containing diets; n=4/5/5. Data are mean ±SD, depicting one of two independent experiments. *p < 0.05 by two-sided t-test. (FIG. 1E) Relative number of CD45^+CD3^+ T cells in colons of AOM-treated mice at week 24 (n>7, pooled from two independent experiments). Data are mean ± SD, **p < 0.01 by two-sided t-test. (FIG. 1F) Organoid treatment scheme. APTK-organoids were incubated in the presence of UA or DMSO for the indicated time points, prior to flow cytometric analysis. (FIG. 1G) Quantification of lysosome formation as assessed by lysotracker MFI via flow cytometry after 24 h incubation at the presence of various UA concentrations (n=5/4/4). Depicts one out of two indepdent experiments. Data are mean ± SD, *p < 0.05; **p < 0.01 as established via two-sided t-test. (FIG. 1H) Mitotracker signal of APTK organoids incubated for 24 h at the presence of UA in vitro (n=4/4/4) and antigen presentation via MHC-I molecules (I) after 48 h of treatment (n=4/4/4). Results from one out of two independent experiments are shown. Data are mean ± SD, statistical analysis was performed via two-sided t-test, *p < 0.05; **p < 0.01, ****p < 0.0001. (FIG. 1I) Upregulation of MHC-I by UA. (FIG. 1J) Experimental setup of oral UA administration in mice with established APTK-s.c. tumors. […] (FIG. 1L) End point tumor weight, (FIG. 1M) CD8+ T cell infiltration in APTK-s.c. tumors assessed by flow cytometry, normalising total number of CD8^+ T cells to tumor weight (n=7 per group). […]
(A flow cytometer gives signals particle by particle.)

Assay [2] concerns subcutaneous APTK tumors. The assay is described as follows: Oral UA in Rag1-/- mice with s.c. APTK tumors. In kind it is in vivo. The following applies: UA-containing vs control food; no mature T and B cells. The source says: Oral UA confers anti-tumor effects in murine colorectal cancer in a T-cell dependent manner. (FIG. 1A) Schematic representation of AOM model and different UA containing diets. (FIG. 1B) Representative images of swiss-roll sections from AOM-induced colon tumors. Scale bars are 2 mm (upper row) and 300 µm (lower row), respectively. (FIG. 1C) Tumor incidence of AOM-induced tumors receiving different UA-containing diets; n=4/5/5. Data are mean ±SD, depicting one of two independent experiments. *p < 0.05 by two-sided t-test. (FIG. 1D) Average lesion size of AOM-induced tumors receiving different UA-containing diets; n=4/5/5. Data are mean ±SD, depicting one of two independent experiments. *p < 0.05 by two-sided t-test. (FIG. 1E) Relative number of CD45^+CD3^+ T cells in colons of AOM-treated mice at week 24 (n>7, pooled from two independent experiments). Data are mean ± SD, **p < 0.01 by two-sided t-test. (FIG. 1F) Organoid treatment scheme. […] (FIG. 1G) Quantification of lysosome formation as assessed by lysotracker MFI via flow cytometry after 24 h incubation at the presence of various UA concentrations (n=5/4/4). […] (FIG. 1L) End point tumor weight, (FIG. 1M) CD8+ T cell infiltration in APTK-s.c. tumors assessed by flow cytometry, normalising total number of CD8^+ T cells to tumor weight (n=7 per group). […]

For assay [3], the system named is muscle function. The note with it: urolithin A-high diet, cited from earlier work.
[4] abbreviates: increasing concentrations of UA, 24 h.

`O=c1oc2cc(O)ccc2c2ccc(O)cc12` [Urolithin A]: the “MHC-I (antigen presentation)” value in assay [1] (48 h of treatment) was “marked upregulation of MHC-I”. In addition, in assay [1] (setting [4]), the MitoTracker staining result is recorded as “loss of MitoTracker staining” and the “formation of lysosomes (lysotracker MFI)” value is reported as “dose-dependent formation of lysosomes”. Also, the “tumor size, protective effect of UA” value in assay [2] was “abrogated the protective effect of UA”. Besides, the “recovery of muscle function” value in assay [3] (mice with Duchenne muscular dystrophy) is recorded as “recovery of muscle function”. The muscle function entry in assay [3] is given as “superior muscle function”.
